Data set [1] deals with Aβ peptide production in rat primary neuronal culture. The data set is described as follows: In vitro cellular assay: quantification of Aβ peptide in culture of neurons from rat fetus brain. Conditions: Primary cortical neuron; Aβ ELISA, rat primary cortical neurons; Aβ species (x-40 or x-42) not given; read-out: IC50. It is filed as cell-based, Wistar rat. As for the experimental part: Quantification of Aβ Peptide in Culture of Neurons from Rat Fetus Brain
Primary neuronal cultures were prepared from the cerebral cortex of embryonic day 18 Wistar rats (Charles River, UK). Specifically, the embryos were aseptically removed from pregnant rats under ether anesthesia. The brain was isolated from the embryo and immersed in HBSS (Sigma Aldrich #H9269) containing 10 mM HEPES (Gibco #15630-056). The cerebral cortex was collected from the isolated brain under a stereoscopic microscope. The cerebral cortex fragments collected were enzymatically treated in an enzyme solution containing 0.05% trypsin-EDTA solution (GIBCO, #25300) at 37° C. for 20 minutes to disperse the cells. The cells were then washed twice and then gently resuspended in Neurobasal medium (Gibco #21103) supplemented with 2% B27 supplement (GIBCO #17504-044), 0.5 mM L-glutamine (GIBCO #25030), 1×N2 (GIBCO #17502-048), 100 μg/ml Pen/Strep (GIBCO 15140-122) and 5% heat inactivated FCS (PAA #A15-701). The cell dispersion was filtered through a 40-μm nylon mesh (BD Falcon #352340) to remove the remaining cell mass, and thus a neuronal cell suspension was obtained. The neuronal cell suspension was diluted with the medium above and then plated in a volume of 100 μL/well at an initial cell density of 3.25×10^5 cells/ml in poly-D-lysine coated 96-well culture plate (Greiner #655940). The plated cells were cultured in the culture plate at 37° C. in 5% CO2-95% air for 24 hrs. The total amount of the medium was replaced with ‘assay Neurobasal medium’ (as above excluding heat inactivated FCS), and then the cells were cultured for a further five days.
The drug was added to the culture plate on Day 6 of culture as follows. 8 point compound serial dilutions were generated in DMSO at a concentration of ×1000 that of the final assay concentration (FAC). Compound solutions were then prepared by adding 999 ul of ‘Assay Neurobasal media’ (as described in above section) to 1 ul of DMSO compound stock. The total amount of the medium was removed from each of the cell plate wells, and […] of ‘Assay Neurobasal media’ was added followed by […] of compound solution. The final DMSO concentration was 0.1%. […]
Cell survival was evaluated using an Alamar assay according to the following procedure. […]
Measurement of fluorescence intensity for each well was the carried out at 540/590 nm using a Pherastar plus plate reader (BMG labtech). […]
Human/Rat β Amyloid (42) ELISA Kit Wako (#290-62601) and Human/Rat P Amyloid (40) ELISA Kit Wako (#294-62501) from Wako Pure Chemical Industries, Ltd. were used for Aβ ELISA. […] The results were shown as percentage of the control groups and IC50 values for each compound were determined using four parameter logistic fit model using the XLFIT5 software package (IDBS).
A general note: In an ELISA, binding on a coated surface is turned into a signal by an enzyme label.

For data set [2] the following is noted: TASTPM mice, cited from earlier work; for brain concentration: oral dose of 250 mg/kg.
The next data set addresses BACE-1 (Homo sapiens, UniProt P56817). Conditions: cited from earlier work.
A further data set relates to Aβ40. To be noted: TASTPM mice, cited from earlier work.

Molecules are shown by their SMILES. Where two headings read alike, the source gives them in different places.

Sequence of BACE-1 (P56817 46-501, species assumed): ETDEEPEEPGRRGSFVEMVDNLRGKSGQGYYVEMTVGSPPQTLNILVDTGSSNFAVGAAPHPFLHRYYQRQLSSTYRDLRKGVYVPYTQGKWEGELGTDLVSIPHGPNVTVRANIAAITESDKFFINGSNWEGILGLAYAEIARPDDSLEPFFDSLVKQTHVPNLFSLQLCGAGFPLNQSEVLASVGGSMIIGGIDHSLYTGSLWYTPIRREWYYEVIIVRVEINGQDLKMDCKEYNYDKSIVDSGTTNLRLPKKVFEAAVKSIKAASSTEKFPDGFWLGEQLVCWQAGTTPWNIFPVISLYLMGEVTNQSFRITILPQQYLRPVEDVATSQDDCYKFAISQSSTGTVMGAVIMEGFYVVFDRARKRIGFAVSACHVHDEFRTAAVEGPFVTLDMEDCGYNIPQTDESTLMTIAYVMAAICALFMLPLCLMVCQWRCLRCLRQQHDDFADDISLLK

Broadly, the IC50 is the concentration at which inhibition is half-maximal. Turning to `COc1cnc(C(=O)Nc2cc(F)c(F)c([C@]34CO[C@H](C(F)F)[C@H]3CSC(N)=N4)c2)cn1` [Example 1, N-(3-((4aS,5S,7aS)-2-amino-5-(difluoromethyl)-4a,5,7,7a-tetrahydro-4H-furo[3,4-d][1,3]thiazin-7a-yl)-4,5-difluorophenyl)-5-methoxypyrazine-2-carboxamide], the IC50 in data set [1] was found to be 7 nM.
As for `CCNc1cc(C(=O)N[C@@H](Cc2ccccc2)[C@H](O)CNCc2cccc(C(F)(F)F)c2)c(F)c(N2CCCCS2(=O)=O)c1` [GSK188909], the “increase in CNS penetration by co-administration of a Pgp inhibitor” value in data set [2] (250 mg/kg oral, with vs without GF120918) was approximately 9 fold. For the same molecule, the brain concentration in data set [2] (Pgp inhibitor GF120918 dosed 5 hours before) is 5.43 µM; in data set [2] (no Pgp inhibitor), 0.62 µM. Besides, the IC50 at BACE-1 was 5 nM. In addition, the “effect on brain Aβ40 levels” value in the data set with Aβ40 (250 mg/kg oral dose, absence of a Pgp inhibitor) is listed as “did not have any effect”. Further, the “reduction in brain Aβ40 levels relative to vehicle-treated mice” value in the data set on Aβ40 (250 mg/kg oral, Pgp inhibitor co-administered 5 hours prior) is 68%.

The values above are taken from patent US9175013B2, “Fused aminodihydrothiazine derivatives” (Eisai R&D Management Co., Ltd., priority 2011, dated 2015).
